Key:
Format in all cases: in vivo
Scirpus juncoides [1] = assay: Test Example 2: herbicidal activity, application during weed generation in submerged conditions; conditions: Eighteenth Table; application herbicide amount 320 g/ha
In short: (§1)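 Mixed sowings in flooded alluvial soil (4 cm water), greenhouse 25-30 °C; emulsifiable concentrate diluted in water applied to the water surface at the 1-2 leaf stage, rate in g/ha. Effect scored three weeks later on a 0-5 scale (5 = ≥90% herbicidal ratio, 0 = ≤5%).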

[2] = system: Echinochloa oryzacola Vasing.; assay: as above; conditions: Eighteenth Table; application herbicide amount 320 g/ha
In short: as §1

Monochoria vaginalis [3] = assay: as above; conditions: Eighteenth Table; application herbicide amount 320 g/ha
In short: as §1

Leptochloa chinensis = assay: Test Example 3: herbicidal effect by application to foliage (Wagner pot, water depth 0.1-0.5 cm); conditions: Nineteenth Table; application to foliage; application herbicide amount 320 g/ha
In short: (§2)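 Greenhouse pot test, 25–30 °C, alluvial soil. Sown seedlings grown 14 days then sprayed on leaves and stems with emulsion diluted to target g/ha. Rating at 3 weeks, 0–5 scale (0 ≤5%, 5 ≥90%).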

[4] = system: Echinochloa crus-galli var. crus-galli; assay: as above; conditions: Nineteenth Table; application to foliage; application herbicide amount 320 g/ha
In short: as §2

Cyperus difformis = assay: as above; conditions: Nineteenth Table; application to foliage; application herbicide amount 320 g/ha
In short: as §2

Scirpus juncoides [5] = assay: Test Example 1: herbicidal activity, application before weed generation in submerged conditions; conditions: Application herbicide amount 320 g/ha; Seventeenth Table
In short: (§3)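 Pre-emergence application to water surface of submerged pots (4 cm depth, alluvial soil) on sowing day, with 2.5-leaf rice transplanted; emulsion diluted to g/ha rates. Grown in greenhouse at 25–30 °C; 0–5 herbicidal/crop-effect score after three weeks.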

[6] = system: Echinochloa oryzacola Vasing.; assay: as above; conditions: Application herbicide amount 320 g/ha; Seventeenth Table
In short: as §3

Monochoria vaginalis [7] = assay: as above; conditions: Application herbicide amount 320 g/ha; Seventeenth Table
In short: as §3

[8] = system: directly sowed Oryza sativa; assay: Test Example 3: effect on crop by application to foliage (Wagner pot, water depth 0.1-0.5 cm); conditions: Nineteenth Table; application to foliage; application herbicide amount 320 g/ha
In short: as §2

Compound | B (Scirpus juncoides) herbicidal ratio grade (Scirpus juncoides [1]) | A (Echinochloa oryzicola Vasing.) herbicidal ratio grade [2] | C (Monochoria vaginalis) herbicidal ratio grade (Monochoria vaginalis [3]) | D (herbicidal effect grade) (Leptochloa chinensis) | H (herbicidal effect grade) [4] | E (herbicidal effect grade) (Cyperus difformis) | B: Scirpus juncoides (herbicidal effect grade) (Scirpus juncoides [5]) | A: Echinochloa oryzicola Vasing. (herbicidal effect grade) [6] | C: Monochoria vaginalis (herbicidal effect grade) (Monochoria vaginalis [7]) | b (effect on crop grade) [8]
COCCSc1nnc2c(C(=O)Nc3nnc(C)o3)ccc(C(F)(F)F)n12 [1-063] | 3 (Herbicidal ratio of 40% or more and less than 70%) | 4 (Herbicidal ratio of 70% or more and less than 90%) | 2 (Herbicidal ratio of 20% or more and less than 40%) | 5 (Herbicidal ratio of 90% or more (almost completely withered)) | 5 (Herbicidal ratio of 90% or more (almost completely withered)) | 5 (Herbicidal ratio of 90% or more (almost completely withered)) | 4 (Herbicidal ratio of 70% or more and less than 90%) | 5 (Herbicidal ratio of 90% or more (almost completely withered)) | 3 (Herbicidal ratio of 40% or more and less than 70%) | 2 (Herbicidal ratio of 20% or more and less than 40%)
C=CCSc1nnc2c(C(=O)Nc3nnc(C)o3)ccc(C(F)(F)F)n12 [1-064] | 3 (Herbicidal ratio of 40% or more and less than 70%) | 2 (Herbicidal ratio of 20% or more and less than 40%) | 2 (Herbicidal ratio of 20% or more and less than 40%) | 4 (Herbicidal ratio of 70% or more and less than 90%) | 5 (Herbicidal ratio of 90% or more (almost completely withered)) | 4 (Herbicidal ratio of 70% or more and less than 90%) | 4 (Herbicidal ratio of 70% or more and less than 90%) | 5 (Herbicidal ratio of 90% or more (almost completely withered)) | 3 (Herbicidal ratio of 40% or more and less than 70%) | 2 (Herbicidal ratio of 20% or more and less than 40%)
CN(C)c1nnc2c(C(=O)Nc3nnco3)ccc(C(F)(F)F)n12 [1-103] | 5 (Herbicidal ratio of 90% or more (almost completely withered)) | 4 (Herbicidal ratio of 70% or more and less than 90%) | 4 (Herbicidal ratio of 70% or more and less than 90%) | 5 (Herbicidal ratio of 90% or more (almost completely withered)) | 5 (Herbicidal ratio of 90% or more (almost completely withered)) | 5 (Herbicidal ratio of 90% or more (almost completely withered)) | 4 (Herbicidal ratio of 70% or more and less than 90%) | 5 (Herbicidal ratio of 90% or more (almost completely withered)) | 4 (Herbicidal ratio of 70% or more and less than 90%) | 4 (Herbicidal ratio of 70% or more and less than 90%)
Cc1nnc(NC(=O)c2ccc(C(F)(F)F)n3c(CC4CC4)nnc23)o1 [1-104] | 3 (Herbicidal ratio of 40% or more and less than 70%) | 4 (Herbicidal ratio of 70% or more and less than 90%) | 3 (Herbicidal ratio of 40% or more and less than 70%) | 5 (Herbicidal ratio of 90% or more (almost completely withered)) | 5 (Herbicidal ratio of 90% or more (almost completely withered)) | 4 (Herbicidal ratio of 70% or more and less than 90%) | 3 (Herbicidal ratio of 40% or more and less than 70%) | 4 (Herbicidal ratio of 70% or more and less than 90%) | 2 (Herbicidal ratio of 20% or more and less than 40%) | 0 (Herbicidal ratio of 5% or less (almost no effect))
Cc1nnc(NC(=O)c2ccc(C(F)(F)F)n3c(C4(C)CC4(Cl)Cl)nnc23)o1 (stereo not drawn) [1-105] | 4 (Herbicidal ratio of 70% or more and less than 90%) | 3 (Herbicidal ratio of 40% or more and less than 70%) | 3 (Herbicidal ratio of 40% or more and less than 70%) | 5 (Herbicidal ratio of 90% or more (almost completely withered)) | 5 (Herbicidal ratio of 90% or more (almost completely withered)) | 5 (Herbicidal ratio of 90% or more (almost completely withered)) | 5 (Herbicidal ratio of 90% or more (almost completely withered)) | 5 (Herbicidal ratio of 90% or more (almost completely withered)) | 4 (Herbicidal ratio of 70% or more and less than 90%) | 0 (Herbicidal ratio of 5% or less (almost no effect))
CCSc1nnc2c(C(=O)Nc3nnco3)ccc(C(F)(F)F)n12 [1-106] | 5 (Herbicidal ratio of 90% or more (almost completely withered)) | 5 (Herbicidal ratio of 90% or more (almost completely withered)) | 4 (Herbicidal ratio of 70% or more and less than 90%) | 5 (Herbicidal ratio of 90% or more (almost completely withered)) | 5 (Herbicidal ratio of 90% or more (almost completely withered)) | 5 (Herbicidal ratio of 90% or more (almost completely withered)) | 5 (Herbicidal ratio of 90% or more (almost completely withered)) | 5 (Herbicidal ratio of 90% or more (almost completely withered)) | 4 (Herbicidal ratio of 70% or more and less than 90%) | 3 (Herbicidal ratio of 40% or more and less than 70%)
COCCOCc1nnc2c(C(=O)Nc3nnco3)ccc(C(F)(F)F)n12 [1-107] | 4 (Herbicidal ratio of 70% or more and less than 90%) | 5 (Herbicidal ratio of 90% or more (almost completely withered)) | 4 (Herbicidal ratio of 70% or more and less than 90%) | 5 (Herbicidal ratio of 90% or more (almost completely withered)) | 5 (Herbicidal ratio of 90% or more (almost completely withered)) | 5 (Herbicidal ratio of 90% or more (almost completely withered)) | 4 (Herbicidal ratio of 70% or more and less than 90%) | 5 (Herbicidal ratio of 90% or more (almost completely withered)) | 5 (Herbicidal ratio of 90% or more (almost completely withered)) | 3 (Herbicidal ratio of 40% or more and less than 70%)
CCCSc1nnc2c(C(=O)Nc3nnco3)ccc(C(F)(F)F)n12 [1-108] | 4 (Herbicidal ratio of 70% or more and less than 90%) | 4 (Herbicidal ratio of 70% or more and less than 90%) | 3 (Herbicidal ratio of 40% or more and less than 70%) | 5 (Herbicidal ratio of 90% or more (almost completely withered)) | 5 (Herbicidal ratio of 90% or more (almost completely withered)) | 5 (Herbicidal ratio of 90% or more (almost completely withered)) | 5 (Herbicidal ratio of 90% or more (almost completely withered)) | 5 (Herbicidal ratio of 90% or more (almost completely withered)) | 5 (Herbicidal ratio of 90% or more (almost completely withered)) | 1 (Herbicidal ratio of 5% or more and less than 20%)
COCCNc1nnc2c(C(=O)Nc3nnc(C)o3)ccc(C(F)(F)F)n12 [1-109] | 1 (Herbicidal ratio of 5% or more and less than 20%) | 0 (Herbicidal ratio of 5% or less (almost no effect)) | 0 (Herbicidal ratio of 5% or less (almost no effect)) | 5 (Herbicidal ratio of 90% or more (almost completely withered)) | 5 (Herbicidal ratio of 90% or more (almost completely withered)) | 3 (Herbicidal ratio of 40% or more and less than 70%) | 2 (Herbicidal ratio of 20% or more and less than 40%) | 0 (Herbicidal ratio of 5% or less (almost no effect)) | 0 (Herbicidal ratio of 5% or less (almost no effect)) | 2 (Herbicidal ratio of 20% or more and less than 40%)

From US9708314B2, “Heterocyclic amide compound” (NISSAN CHEMICAL INDUSTRIES, LTD., priority 2013, dated 2017)
